# Source: US20210238138A1, “Method for improving nucleation of crystals from solution” (Université Libre de Bruxelles, priority 2018, published 2021)
# What was measured:
# Type in all cases: physicochemical
# [1] = Transient time and distance of aspirin solution in tubing; conditions: 200 mg/mL in ethanol/water 50/50 vol %, start 60° C., water bath 10° C.; for Transient distance: flow rate 30 mL/min
# Excerpt: Two different capillaries of dimensions 1000 and 1500 μm inner diameter ID were used for a test using the setup of FIG. 1 in which the evolution of temperature inside the tubing was experimentally investigated at different distances.
# (§1) The transition time is defined as the time necessary to reach crystallization conditions in the used setup (i.e. time for a fluid particle flowing in the liquid to get from undersaturated conditions to nucleation conditions). Therefore, this time is at a given concentration dominated by the difference in temperature between the solubility temperature and the metastable zone width or MSZW. At temperatures below this MSZW the solute in solution starts to nucleate spontaneously. […] (both measured). The transition time is then defined as the time needed to overcome this 20° C. difference in temperature.
# As a consequence, for a 1500 μm inner diameter tubing, the total tubing length necessary to conduct crystallization is a multitude of the corresponding transient distance, making any workable application impossible: about 3.5 m are necessary to overcome the solubility time; 3.5 m to reach transient distance and approximately the 4 times the transient distance is necessary to increase sufficiently the induction time. The transient distance is defined as the distance the liquid is transferred during the transient time at a given flow rate.
# [2] = Cooling crystallisation of acetylsalicylic acid in ethanol/water in capillary tubing
# [3] = Maturing of acetylsalicylic acid crystals (growth treatment, early filtration); conditions: 3 m tubing, Tc 15° C., σ 4.5, 30 mL/min; for Sphere Equivalent Diameter: thickness set to ⅕ of width
# Protocol: Obtaining different crystal sizes as end-product then depends on the time that is given to the crystals to mature further. […] To further proof the effect of early filtration (see table 10), the liquor of tests 43 and 44 were also directly filtered after exiting the tubing (test 49 and 50, respectively); the product of test 44 was also collected for 2 minutes and filtered afterwards (test 51).
# [4] = Solubility temperature and spontaneous nucleation temperature of aspirin solution; conditions: 200 mg/mL in 50/50 vol % ethanol/water
# Excerpt: as §1
# [5] = Maturing of acetylsalicylic acid crystals (growth treatment, early filtration); conditions: 3 m tubing
# [6] = Cooling crystallisation of acetylsalicylic acid in ethanol/water in capillary tubing; conditions: 200 mg/mL 50 vol % ethanol/water, residence time 5.3 s, initial 65° C., bath 10° C.
# Protocol: Tubing length should also be adapted when no antisolvent is added to the molecule/solvent solution.
# The crystallization temperature is controlled by a water bath containing about 5 L of water, temperature is monitored at all times by a thermocouple. This water is cooled by a 1 m long cupper serpentine plunged into the bath with cooling liquid flowing from and to a cryothermostat, the water bath itself is agitated with a magnetic bar stirrer. The internal volume of a 7 m long tubing of […] is about 22 mL. As this volume is 220 times smaller than the volume of the present water it is assumed that the water temperature remains within a 0.5° C. or smaller margin of the set temperature value.
# This reduction in size has to be performed in order to increase the reigning Reynolds number inside the restriction at set flow rates and concentrations.
# For example, in a series of tests, an identical total residence time inside the tubing of 5.3 s was respected. A solution of 200 mg/mL aspirin in 50 vol % ethanol/water was used; at different flow rates. This means that the total length of the tubing inside the water bath was varied according to the set flow rate in order to retain the 5.3 s residence time.
# [7] = 200 mg/mL 50 vol % ethanol/water, residence time 5.3 s, initial 65° C., bath 10° C., tubing ID 1000 μm, flow rate 20 mL/min, tubing length 2.5 m
# [8] = test 40: 200 mg/mL ethanol/water 50/50 vol %, 3 m tubing, Tc 15° C., σ 4.5, 30 mL/min, restriction 0, average of 10 tests
# [9] = test 41: 200 mg/mL ethanol/water 50/50 vol %, 3 m tubing, Tc 15° C., σ 4.5, 30 mL/min, restriction 1 of 500 μm ID, average of 10 tests
# [10] = test 42: 200 mg/mL ethanol/water 50/50 vol %, 3 m tubing, Tc 15° C., σ 4.5, 30 mL/min, restriction 2 of 500 μm ID, average of 10 tests
# [11] = test 43: 200 mg/mL ethanol/water 50/50 vol %, 3 m tubing, Tc 15° C., σ 4.5, 30 mL/min, restriction 1 of 250 μm ID, average of 10 tests
# [12] = test 44: 200 mg/mL ethanol/water 50/50 vol %, 3 m tubing, Tc 15° C., σ 4.5, 30 mL/min, restriction 2 of 250 μm ID, average of 10 tests
# [13] = test 49: 200 mg/mL ethanol/water 50/50 vol %, restriction 1 of 250 μm ID, filtration At exit
# [14] = test 50: 200 mg/mL ethanol/water 50/50 vol %, restriction 2 of 250 μm ID, filtration At exit
# [15] = test 51: 200 mg/mL ethanol/water 50/50 vol %, restriction 2 of 250 μm ID, filtration After 120 s
# [16] = test 45: 200 mg/mL ethanol/water 50/50 vol %, Tc 10° C., σ 6.7, 30 mL/min, no restrictions, Growth to equilibrium in tubing
# [17] = test 46: 200 mg/mL ethanol/water 50/50 vol %, Tc 10° C., σ 6.7, 30 mL/min, no restrictions, filtration on 16 μm glass filter after 60 s
# [18] = test 47: 200 mg/mL ethanol/water 50/50 vol %, Tc 10° C., σ 6.7, 30 mL/min, no restrictions, filtration on 16 μm glass filter after 90 s
# [19] = test 48: 200 mg/mL ethanol/water 50/50 vol %, Tc 10° C., σ 6.7, 30 mL/min, no restrictions, Addition to saturated solution
smiles,measurement,setting,value
"CC(=O)Oc1ccccc1C(=O)O [Acetylsalicylic acid, acetylsalicylic acid]",Transient time,[1]; tubing 1000 μm,1 000 ms
same,Transient distance,[1]; tubing 1000 μm,1.3 m
same,Transient time,[1]; tubing 1500 μm,5 700 ms
same,Transient distance,[1]; tubing 1500 μm,3.5 m
same,Nucleation rate J,"[2]; 200 mg/mL 50 vol % ethanol/water, residence time 5.3 s, initial 65° C., bath 10° C., tubing ID 750 μm, flow rate 20 mL/min, tubing length 4.2 m",50 000 mL^−1 · s−^1
same,Crystal length,"[2]; 200 mg/mL 50 vol % ethanol/water, residence time 5.3 s, initial 65° C., bath 10° C., tubing ID 750 μm, flow rate 30 mL/min, tubing length 6.2 m",285 μm
same,Crystal length,[2]; [7],1279 μm
same,Nucleation rate J,[2]; [7],1400 mL^−1 · s−^1
same,Nucleation rate J,"[2]; 200 mg/mL 50 vol % ethanol/water, residence time 5.3 s, initial 65° C., bath 10° C., tubing ID 1000 μm, flow rate 30 mL/min, tubing length 3.6 m",54 000 mL^−1 · s−^1
same,Nucleation rate J,"[2]; 200 mg/mL 50 vol % ethanol/water, residence time 5.3 s, initial 65° C., bath 10° C., tubing ID 1000 μm, flow rate 40 mL/min, tubing length 4.7 m",112 000 mL^−1 · s−^1
same,Crystal length,"[2]; 200 mg/mL 50 vol % ethanol/water, residence time 5.3 s, initial 65° C., bath 10° C., tubing ID 1500 μm, flow rate 20 mL/min, tubing length 1.2 m",No crystallization observed
same,Crystal length,"[2]; 200 mg/mL 50 vol % ethanol/water, residence time 5.3 s, initial 65° C., bath 10° C., tubing ID 1500 μm, flow rate 30 mL/min, tubing length 1.7 m",No crystallization observed
same,Crystal length,"[2]; 200 mg/mL 50 vol % ethanol/water, residence time 5.3 s, initial 65° C., bath 10° C., tubing ID 1500 μm, flow rate 40 mL/min, tubing length 2.2 m",No crystallization observed
same,Crystal length,"[2]; test 34: 300 mg/mL ethanol-water, Tc 15° C., σ 27, Q 30 mL/min, tubing length 7 m, diameter 500 μm, 4 restrictions 1 mm long, 500 μm",Tube blocked
same,Crystal length,"[2]; test 35: 300 mg/mL ethanol-water, Tc 10° C., σ 27, Q 30 mL/min, tubing length 6 m, diameter 750 μm, 4 restrictions 1 mm long, 500 μm",Tube blocked
same,Crystal length,"[2]; test 36: 300 mg/mL ethanol-water, Tc 10° C., σ 27, Q 30 mL/min, tubing length 5 m, diameter 500 μm, 4 restrictions 1 mm long, 500 μm",Tube blocked
same,Crystal length,"[2]; test 37: 300 mg/mL ethanol-water, Tc 10° C., σ 27, Q 30 mL/min, tubing length 3 m, diameter 500 μm, 4 restrictions 1 mm long, 500 μm",800 ± 68 μm
same,Crystal length,"[2]; test 38: 300 mg/mL ethanol-water, Tc 10° C., σ 27, Q 30 mL/min, tubing length 3 m, diameter 500 μm, 4 restrictions 1 mm long, 500 μm",820 ± 80 μm
same,Crystal length,"[2]; test 39: 300 mg/mL ethanol-water, Tc 10° C., σ 27, Q 30 mL/min, tubing length 3 m, diameter 500 μm, 4 restrictions 1 mm long, 500 μm",795 ± 73 μm
same,Crystal length,[2]; [8],1319 ± 167 μm
same,Nucleation rate,[2]; [8],2300 mL⁻¹ s⁻¹
same,Sphere Equivalent Diameter,[2]; [8],449 ± 74 μm
same,Crystal length,[2]; [9],1398 ± 100 μm
same,Nucleation rate,[2]; [9],1900 mL⁻¹ s⁻¹
same,Sphere Equivalent Diameter,[2]; [9],490 ± 85 μm
same,Crystal length,[2]; [10],1049 ± 179 μm
same,Nucleation rate,[2]; [10],3700 mL⁻¹ s⁻¹
same,Sphere Equivalent Diameter,[2]; [10],348 ± 104 μm
same,Crystal length,[2]; [11],962 ± 82 μm
same,Nucleation rate,[2]; [11],5300 mL⁻¹ s⁻¹
same,Sphere Equivalent Diameter,[2]; [11],328 ± 31 μm
same,Crystal length,[2]; [12],393 ± 35 μm
same,Nucleation rate,[2]; [12],130 000 mL^−1 · s^−1
same,Sphere Equivalent Diameter,[2]; [12],117 ± 20 μm
same,Crystal depth as fraction of the width,"[2]; tests 43 and 44 (250 μm inner diameter restrictions), 200 mg/mL ethanol/water 50/50",about ⅕
same,Crystal length,[3]; [13],104 ± 55 μm
same,Crystal width,[3]; [13],28 ± 13 μm
same,Sphere Equivalent Diameter,[3]; [13],32 ± 7 μm
same,Crystal width,[3]; [14],23 ± 17 μm
same,Sphere Equivalent Diameter,[3]; [14],24 ± 8 μm
same,Crystal length,[3]; [15],155 ± 91 μm
same,Crystal width,[3]; [15],36 ± 17 μm
same,Solubility temperature,[4],40 °C
same,Temperature at which spontaneous nucleation starts,[4],20 °C
same,Crystal length,[5]; [16],500 ± 230 μm
same,Crystal width,[5]; [16],69 ± 27 μm
same,Crystal length,[5]; [17],359 ± 190 μm
same,Crystal width,[5]; [17],66 ± 35 μm
same,Crystal length,[5]; [18],646 ± 391 μm
same,Crystal width,[5]; [18],38 ± 23 μm
same,Crystal length,[5]; [19],172 ± 66 μm
same,Crystal width,[5]; [19],38 ± 13 μm
same,Crystal length,"[5]; test 50: 200 mg/mL ethanol/water 50/50 vol %, Tc 15° C., σ 4.5, 30 mL/min, restriction 2 of 250 μm ID, filtration At exit",63 ± 36 μm
same,Sphere Equivalent Diameter,"[5]; test 51: 200 mg/mL ethanol/water 50/50 vol %, Tc 15° C., σ 4.5, 30 mL/min, restriction 2 of 250 μm ID, filtration After 120 s, thickness set to ⅕ of width",42 ± 11 μm
same,Crystal length,"[6]; tubing ID 750 μm, flow rate 20 mL/min, tubing length 4.2 m",377 μm
same,Nucleation rate J,"[6]; tubing ID 750 μm, flow rate 30 mL/min, tubing length 6.2 m",170 000 mL^−1 · s−^1
same,Crystal length,"[6]; tubing ID 1000 μm, flow rate 30 mL/min, tubing length 3.6 m",495 μm
same,Crystal length,"[6]; tubing ID 1000 μm, flow rate 40 mL/min, tubing length 4.7 m",416 μm
